Measured values as given in patent US6462052B1, “Synergistic fungicide and/or bactericide composition” (Rhone-Poulenc Agro, priority 1998, dated 2002).

Test system: Venturia inaequalis
Assay: Combination of pyrimethanil and dodine in controlling apple scab: curative treatment of inoculated apple plants
Format: in vivo
Details: for Practical efficacy: treated 3 days after inoculation, scored one month after inoculation; for Protection (in words): used alone
Experimental: Example: Combination of pyrimethanil and dodine in controlling apple scab
The fungicides evaluated are the following:
The fungicidal compositions evaluated are the following:
Apple plants (var. Melrose Golden) at the 5-6-leaf stage are inoculated with an aqueous suspension containing 150 000 spores of Venturia inaequalis/ml of inoculum. The plants are then placed in a climatic cell at 16-18° C., 100% RH (relative humidity) for 3 days. They are then treated with the fungicidal compositions at the doses cited above (12 repeats/dose) in a plant protection mixture at 500 l/ha and are again placed under the conditions described above. One month after the inoculation, scores are awarded. This consists in estimating the diseased leaf surface area in the two leaf stages sensitive to the disease and, by comparing with an untreated contaminated control, in defining the percentage efficacy according to the following formula:
% practical efficacy=100×(% contamination Control−% contamination Trial)/% contamination Control
The theoretical efficacy according to the Colby formula is calculated based on the following formula:
% theoretical efficacy A+B=% practical eff. A+% practical eff. B−(% practical eff. A×% practical eff. B/100)

Compound	Practical efficacy (pyrimethanil 50 g/ha alone, apple plants var. Melrose Golden) [%]	Practical efficacy (pyrimethanil 100 g/ha alone) [%]	Practical efficacy (pyrimethanil 200 g/ha alone) [%]	Protection (in words)	Practical efficacy (dodine 150 g/ha alone) [%]	Practical efficacy (dodine 300 g/ha alone) [%]	Practical efficacy (dodine 600 g/ha alone) [%]
Cc1cc(C)nc(Nc2ccccc2)n1 [pyrimethanil]	65.4	65.4	61.5	partial protection			
dodecylguanidine monoacetate [dodine]				partial protection	30.8	76.9	75
